# Assay results: patent US10597388B2, “Pyridazinone herbicides” (FMC CORPORATION, priority 2014, dated 2020)
# Columns and labels:
# Assay in all cases: Test D controlled growth environment herbicide test, pre- and postemergence
# Assay type in all cases: in vivo
# [1] = test system: Russian thistle (Salsola kali)
# Procedure, shortened: (§1)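 Rating is visual, 0–100 scale (100 = complete control), made against untreated plants 14–21 d after treatment in controlled growth conditions. Postemergence sprays went onto 1- to 4-leaf plants in peat medium; preemergence sprays onto silt loam after sowing; formulation included a surfactant.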
# [2] = test system: barley, spring (spring barley, Hordeum vulgare)
# Procedure, shortened: as §1
# [3] = test system: buckwheat, wild (wild buckwheat, Polygonum convolvulus)
# Procedure, shortened: as §1
# [4] = test system: canarygrass (Phalaris minor)
# Procedure, shortened: as §1
# [5] = test system: chickweed (common chickweed, Stellaria media)
# Procedure, shortened: as §1
# [6] = test system: field violet (Viola arvensis)
# Procedure, shortened: as §1
# [7] = test system: galium (catchweed bedstraw, Galium aparine)
# Procedure, shortened: as §1
# [8] = test system: kochia (Kochia scoparia)
# Procedure, shortened: as §1
# [9] = test system: oat, wild (wild oat, Avena fatua)
# Procedure, shortened: as §1
# [10] = test system: oilseed rape (Brassica napus)
# Procedure, shortened: as §1
# [11] = test system: pigweed (Amaranthus retroflexus)
# Procedure, shortened: as §1
# [12] = test system: wheat, spring (spring wheat, Triticum aestivum)
# Procedure, shortened: as §1
# [13] = test system: wheat, winter (winter wheat, Triticum aestivum)
# Procedure, shortened: as §1
# [14] = Postemergence, 31 g ai/ha, scale 0 to 100 (0 no effect, 100 complete control)
# [15] = Postemergence, 125 g ai/ha, visual rating on scale 0 (no effect) to 100 (complete control), 14 to 21 d
# [16] = Postemergence, 250 g ai/ha, scale 0 to 100 (0 no effect, 100 complete control)
# [17] = Preemergence, 62 g ai/ha, scale 0 to 100 (0 no effect, 100 complete control)
# [18] = Preemergence, 125 g ai/ha, scale 0 to 100 (0 no effect, 100 complete control)
# [19] = Preemergence, 250 g ai/ha, scale 0 to 100, 0 no effect, 100 complete control
# [20] = postemergence, 62 g ai/ha, scale 0 to 100, 0 no effect, 100 complete control
smiles,measurement,setting,value
Cc1ccc2sc(Br)c(-c3c(O)c(C)nn(C)c3=O)c2c1 [Compound 79],Russian Thistle plant response rating,[1]; [14],50
same,"Plant response rating, Russian Thistle",[1]; [15],55
same,"Plant response rating, Russian Thistle",[1]; [16],65
same,"Plant response rating (scale of 0 to 100), Russian Thistle","[1]; Preemergence, 31 g ai/ha",0
same,"Plant response rating, Russian Thistle",[1]; [17],70
same,"Plant response rating, Russian Thistle",[1]; [18],75
same,"Plant response rating, Russian Thistle",[1]; [19],100
same,"Plant response rating, Russian Thistle",[1]; [20],55
same,"Barley, Spring plant response rating",[2]; [14],0
same,"Plant response rating, Barley, Spring",[2]; [15],5
same,"Plant response rating, Barley, Spring",[2]; [16],10
same,"Plant response rating (scale of 0 to 100), Barley, Spring","[2]; Preemergence, 31 g ai/ha",0
same,"Plant response rating, Barley, Spring",[2]; [17],0
same,"Plant response rating, Barley, Spring",[2]; [18],0
same,"Plant response rating, Barley, Spring",[2]; [19],0
same,"Plant response rating, Barley, Spring",[2]; [20],5
same,"Buckwheat, Wild plant response rating",[3]; [14],70
same,"Plant response rating, Buckwheat, Wild",[3]; [15],100
same,"Plant response rating, Buckwheat, Wild",[3]; [16],100
same,"Plant response rating (scale of 0 to 100), Buckwheat, Wild","[3]; Preemergence, 31 g ai/ha",0
same,"Plant response rating, Buckwheat, Wild",[3]; [17],90
same,"Plant response rating, Buckwheat, Wild",[3]; [18],25
same,"Plant response rating, Buckwheat, Wild",[3]; [19],100
same,"Plant response rating, Buckwheat, Wild",[3]; [20],100
same,Canarygrass plant response rating,[4]; [14],5
same,"Plant response rating, Canarygrass",[4]; [15],40
same,"Plant response rating, Canarygrass",[4]; [16],45
same,"Plant response rating (scale of 0 to 100), Canarygrass","[4]; Preemergence, 31 g ai/ha",45
same,"Plant response rating, Canarygrass",[4]; [17],60
same,"Plant response rating, Canarygrass",[4]; [18],75
same,"Plant response rating, Canarygrass",[4]; [19],85
same,"Plant response rating, Canarygrass",[4]; [20],20
same,Chickweed plant response rating,[5]; [14],95
same,"Plant response rating, Chickweed",[5]; [15],100
same,"Plant response rating, Chickweed",[5]; [16],100
same,"Plant response rating (scale of 0 to 100), Chickweed","[5]; Preemergence, 31 g ai/ha",100
same,"Plant response rating, Chickweed",[5]; [17],100
same,"Plant response rating, Chickweed",[5]; [18],100
same,"Plant response rating, Chickweed",[5]; [19],100
same,"Plant response rating, Chickweed",[5]; [20],95
same,Field Violet plant response rating,[6]; [14],75
same,"Plant response rating, Field Violet",[6]; [15],85
same,"Plant response rating, Field Violet",[6]; [16],95
same,"Plant response rating (scale of 0 to 100), Field Violet","[6]; Preemergence, 31 g ai/ha",80
same,"Plant response rating, Field Violet",[6]; [17],85
same,"Plant response rating, Field Violet",[6]; [18],98
same,"Plant response rating, Field Violet",[6]; [19],100
same,"Plant response rating, Field Violet",[6]; [20],75
same,Galium plant response rating,[7]; [14],95
same,"Plant response rating, Galium",[7]; [15],100
same,"Plant response rating, Galium",[7]; [16],100
same,"Plant response rating (scale of 0 to 100), Galium","[7]; Preemergence, 31 g ai/ha",80
same,"Plant response rating, Galium",[7]; [17],90
same,"Plant response rating, Galium",[7]; [18],100
same,"Plant response rating, Galium",[7]; [19],100
same,"Plant response rating, Galium",[7]; [20],100
same,Kochia plant response rating,[8]; [14],70
same,"Plant response rating, Kochia",[8]; [15],85
same,"Plant response rating, Kochia",[8]; [16],95
same,"Plant response rating (scale of 0 to 100), Kochia","[8]; Preemergence, 31 g ai/ha",60
same,"Plant response rating, Kochia",[8]; [17],55
same,"Plant response rating, Kochia",[8]; [18],100
same,"Plant response rating, Kochia",[8]; [19],95
same,"Plant response rating, Kochia",[8]; [20],80
same,"Oat, Wild plant response rating",[9]; [14],70
same,"Plant response rating, Oat, Wild",[9]; [15],80
same,"Plant response rating, Oat, Wild",[9]; [16],85
same,"Plant response rating (scale of 0 to 100), Oat, Wild","[9]; Preemergence, 31 g ai/ha",80
same,"Plant response rating, Oat, Wild",[9]; [17],80
same,"Plant response rating, Oat, Wild",[9]; [18],85
same,"Plant response rating, Oat, Wild",[9]; [19],90
same,"Plant response rating, Oat, Wild",[9]; [20],70
same,Oilseed Rape plant response rating,[10]; [14],0
same,"Plant response rating, Oilseed Rape",[10]; [15],20
same,"Plant response rating, Oilseed Rape",[10]; [16],30
same,"Plant response rating (scale of 0 to 100), Oilseed Rape","[10]; Preemergence, 31 g ai/ha",25
same,"Plant response rating, Oilseed Rape",[10]; [17],35
same,"Plant response rating, Oilseed Rape",[10]; [18],40
same,"Plant response rating, Oilseed Rape",[10]; [19],35
same,"Plant response rating, Oilseed Rape",[10]; [20],5
same,Pigweed plant response rating,[11]; [14],100
same,"Plant response rating, Pigweed",[11]; [15],100
same,"Plant response rating, Pigweed",[11]; [16],100
same,"Plant response rating (scale of 0 to 100), Pigweed","[11]; Preemergence, 31 g ai/ha",45
same,"Plant response rating, Pigweed",[11]; [17],100
same,"Plant response rating, Pigweed",[11]; [18],100
same,"Plant response rating, Pigweed",[11]; [19],100
same,"Plant response rating, Pigweed",[11]; [20],100
same,"Wheat, Spring plant response rating",[12]; [14],0
same,"Plant response rating, Wheat, Spring",[12]; [15],0
same,"Plant response rating, Wheat, Spring",[12]; [16],5
same,"Plant response rating (scale of 0 to 100), Wheat, Spring","[12]; Preemergence, 31 g ai/ha",0
same,"Plant response rating, Wheat, Spring",[12]; [17],0
same,"Plant response rating, Wheat, Spring",[12]; [18],0
same,"Plant response rating, Wheat, Spring",[12]; [19],0
same,"Plant response rating, Wheat, Spring",[12]; [20],0
same,"Wheat, Winter plant response rating",[13]; [14],0
same,"Plant response rating, Wheat, Winter",[13]; [15],0
same,"Plant response rating, Wheat, Winter",[13]; [16],0
same,"Plant response rating (scale of 0 to 100), Wheat, Winter","[13]; Preemergence, 31 g ai/ha",0
same,"Plant response rating, Wheat, Winter",[13]; [17],0
same,"Plant response rating, Wheat, Winter",[13]; [18],0
same,"Plant response rating, Wheat, Winter",[13]; [19],0
same,"Plant response rating, Wheat, Winter",[13]; [20],0
Cc1ccc2ccccc2c1-c1c(O)c(Br)nn(C)c1=O [Compound 23],"Plant response rating, Russian Thistle",[1]; [15],75
same,"Plant response rating, Russian Thistle",[1]; [16],80
same,"Plant response rating, Russian Thistle",[1]; [20],75
same,"Plant response rating, Barley, Spring",[2]; [15],25
same,"Plant response rating, Barley, Spring",[2]; [16],30
same,"Plant response rating, Barley, Spring",[2]; [20],15
same,"Plant response rating, Buckwheat, Wild",[3]; [15],100
same,"Plant response rating, Buckwheat, Wild",[3]; [16],100
same,"Plant response rating, Buckwheat, Wild",[3]; [20],100
same,"Plant response rating, Canarygrass",[4]; [15],85
same,"Plant response rating, Canarygrass",[4]; [16],90
same,"Plant response rating, Canarygrass",[4]; [20],75
same,"Plant response rating, Chickweed",[5]; [15],100
same,"Plant response rating, Chickweed",[5]; [16],100
same,"Plant response rating, Chickweed",[5]; [20],100
same,"Plant response rating, Field Violet",[6]; [15],75
same,"Plant response rating, Field Violet",[6]; [16],75
same,"Plant response rating, Field Violet",[6]; [20],45
same,"Plant response rating, Galium",[7]; [15],100
same,"Plant response rating, Galium",[7]; [16],100
same,"Plant response rating, Galium",[7]; [20],100
same,"Plant response rating, Kochia",[8]; [15],75
same,"Plant response rating, Kochia",[8]; [16],80
same,"Plant response rating, Kochia",[8]; [20],75
same,"Plant response rating, Oat, Wild",[9]; [15],95
same,"Plant response rating, Oat, Wild",[9]; [16],95
same,"Plant response rating, Oat, Wild",[9]; [20],75
same,"Plant response rating, Oilseed Rape",[10]; [15],65
same,"Plant response rating, Oilseed Rape",[10]; [16],85
same,"Plant response rating, Oilseed Rape",[10]; [20],60
same,"Plant response rating, Pigweed",[11]; [15],85
same,"Plant response rating, Pigweed",[11]; [16],100
same,"Plant response rating, Pigweed",[11]; [20],75
same,"Plant response rating, Wheat, Spring",[12]; [15],60
same,"Plant response rating, Wheat, Spring",[12]; [16],60
same,"Plant response rating, Wheat, Spring",[12]; [20],50
same,"Plant response rating, Wheat, Winter",[13]; [15],55
same,"Plant response rating, Wheat, Winter",[13]; [16],70
same,"Plant response rating, Wheat, Winter",[13]; [20],40
